Laboratory results published in patent US9126994B2, “Crystalline form of a quinolinone-carboxamide compound” (Theravance Biopharma R&D IP, LLC, priority 2005, dated 2015).

Legend:
Type in all cases: physicochemical
[1] = Dynamic moisture sorption (DMS) assessment; details: for sorption/desorption profile: about 2% to about 90% RH, room temperature
Procedure: Dynamic moisture sorption (DMS) assessment was performed at 25° C. using a VTI atmospheric microbalance, SGA-100 system (VTI Corp., Hialeah, Fla. 33016). A sample size of approximately 5-10 mg was used and the humidity was set at the ambient value at the start of the analysis. A typical DMS analysis consisted of three scans: ambient to 2% relative humidity (RH), 2% RH to 90% RH, 90% RH to 5% RH at a scan rate of 5% RH/step. The mass was measured every two minutes and the RH was changed to the next value (±5% RH) when the mass of the sample was stable to within 0.02% for 5 consecutive points. Representative DMS traces for samples of a crystalline hydrochloride salt and of a crystalline hydrate of a hydrochloride salt of compound I are shown in FIGS. 3 and 6, respectively.

[2] = Thermal analysis (DSC and TGA)
Procedure: Differential scanning calorimetry (DSC) was performed using a TA Instruments Model Q-100 module. Data were collected and analyzed using TA Instruments Thermal Advantage for Q Series™ software. A sample of about 1-10 mg was accurately weighed into an aluminum pan with lid. The sample was evaluated using a linear heating ramp of 10° C./min from 5° C. to, typically, 265° C. The DSC cell was purged with dry nitrogen during use. Representative DSC traces for samples of the crystalline hydrochloride salt and of the crystalline hydrate of a hydrochloride salt of compound I are shown in FIGS. 2 and 5, respectively.
Thermogravimetric analysis (TGA) was performed using a TA Instruments Model Q-500 module. Data were collected and analyzed using TA Instruments Thermal Advantage for Q Series™ software. A sample weighing about 1-5 mg was placed in an aluminum pan on a platinum cradle and scanned from ambient temperature to 300° C. with a linear heating rate of 10° C./min. The balance and furnace chambers were purged with nitrogen during use. Representative TGA traces for samples of a crystalline hydrochloride salt and of a crystalline hydrate of a hydrochloride salt of compound I are also shown in FIGS. 2 and 5, respectively.

[3] = Solid state stability assessment; details: for change in DSC, TGA, PXRD results after storage: hydrochloride
Source text: At specific intervals, the contents of a representative vial was removed and analyzed by DSC, TGA, PXRD, and by HPLC for chemical purity.

[4] = comparison of DSC and TGA traces
[5] = 24 weeks at 40° C. and 75% relative humidity

SMILES | weight gain ([1]; 40% RH to 75% RH) | sorption/desorption profile [1] | weight loss on drying ([1]; dried from ambient to 2% RH, regained from 2% RH to 40% RH) [%] | decomposition (degradation) temperature [2, 4] | decomposition at the melt transition ([2]; comparison of DSC and TGA traces, melt about 225° C. to about 250° C.) | weight change (hygroscopicity) ([1]; 2% to 90% relative humidity, room temperature (25° C.)) | deliquescence ([1]; exposed to up to 90% relative humidity at room temperature) | chemical degradation by HPLC after storage [3, 5] | change in DSC, TGA, PXRD results after storage [3, 5] | change in DSC, TGA, PXRD results after storage ([3]; 24 weeks at 40° C. and 75% relative humidity, listed as hydrochloride salt) | chemical purity of the stored sample (HPLC) ([3]; after 24 weeks of storage, open glass vials, 40° C. and 75% RH) [%] | temperature up to which thermally stable [2] | temperature below which no significant thermal event ([2]; TGA / DSC trace, 10° C./min)
CC(C)n1c(=O)c(C(=O)N[C@H]2C[C@H]3CC[C@@H](C2)N3C[C@@H](O)CN(C)S(C)(=O)=O)cc2ccccc21.Cl.O [crystalline hydrate, crystalline hydrate of hydrochloride salt of 1-isopropyl-2-oxo-1,2-dihydroquinoline-3-carboxylic acid {(1S,3R,5R)-8-[(R)-2-hydroxy-3-(methanesulfonyl-methyl-amino)propyl]-8-aza-bicyclo[3.2.1]oct-3-yl}amide] | less than 0.25% | reversible | ~2.3 | above 250 °C | not significant |  |  |  |  |  |  |  | 
CC(C)n1c(=O)c(C(=O)N[C@H]2C[C@H]3CC[C@@H](C2)N3C[C@@H](O)CN(C)S(C)(=O)=O)cc2ccccc21.Cl [crystalline hydrochloride salt, 1-isopropyl-2-oxo-1,2-dihydroquinoline-3-carboxylic acid {(1S,3R,5R)-8-[(R)-2-hydroxy-3-(methanesulfonyl-methyl-amino)propyl]-8-azabicyclo[3.2.1]oct-3-yl}amide hydrochloride] |  | reversible |  | above 230 °C |  | less than 0.2% | neither the crystalline hydrochloride salt of the invention nor the hydrate thereof is deliquescent | no chemical degradation | no detectable changes | no detectable change | 99.6 | greater than 200 °C | about 225 °C
